Test results from US20210030654A1, “ANTIOXIDANT COMPLEX AND COMPOSITION FOR FORMING SAME” (priority 2018, published 2021).

Tests used:
Human red blood cells = experiment: CAP-e bioassay (cellular antioxidant protection assay of red blood cells); format: cell-based; settings: AAPH-induced oxidative damage, FIGS. 3-5
Method: Cellular antioxidant protection (CAP-e) assay of red blood cells was used to evaluate the capacity of antioxidant complexes to protect cells from oxidative stress after the antioxidant complexes enter the cells.
Human red blood cells were treated for 20 minutes using the antioxidant complex serially diluted in physiological saline. During this incubation period, the antioxidant complexes that may pass through a cell membrane may enter the cells. After exposure of the red blood cells to the antioxidant complex which was tested twice for each dose of the antioxidant complex, the red blood cells were washed twice with PBS to remove the antioxidant complex that was not absorbed by the cells.
The red blood cells were loaded with an indicator dye DCF-DA that becomes fluorescent when oxidized, and then a peroxyl free radical generator AAPH was added thereto to induce oxidative damage to the cells. A relative fluorescence intensity of each cell culture was measured at 488 nanometers using a Tecan Spectrafluor plate reader (Tecan, Männedorf, Switzerland). A reference for oxidation at the cellular level was defined based on a low fluorescence intensity of untreated control cells (cells treated with PBS but not treated with a test product or AAPH). A positive control for cellular oxidative damage was defined as red blood cells exposed to AAPH alone under the absence of the antioxidant complex. […]

Solubility = format: physicochemical; settings: powder introduced into physiological saline
Text: The simple mixture is not preferable for a preparation method of the antioxidant complex according to the inventive concept.

O=C1c2c(O)cc(O)cc2O[C@H](c2ccc(O)c(O)c2)[C@H]1O [dihydroquercetin powder, dihydroquercetin]
intracellular antioxidant capacity / cell protective capacity in CAP-e analysis (Human red blood cells): did not exhibit the intracellular antioxidant capacity
solubility in physiological saline (Solubility): almost completely insoluble
